In paper PMC8222254, “Self-assembly of an anion receptor with metal-dependent kinase inhibition and potent in vitro anti-cancer properties” (Nature Communications, 2021):
Values joined by “and” are separate entries in the source; they are usually repeats but may differ in a detail not shown here. Identical values can stand only once. Like-named read-outs stand apart in the source and are kept apart here.

Key:
Assay in all cases: Chemosensitivity, 96 h continuous exposure, MTT assay;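 on SI (NPI): adult human brain neural progenitor non-cancer cells from an epilepsy surgery patient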;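 on Selectivity Index using the NPI non-cancer cell line: adult human brain neural progenitor non-cancer cells from an epilepsy surgery patient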
Type in all cases: cell-based, human
BxPC3 = test system: BxPC3;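 on SI (NPI): adult human brain neural progenitor non-cancer cells from an epilepsy surgery patient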;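 on Selectivity Index using the NPI non-cancer cell line: adult human brain neural progenitor non-cancer cells from an epilepsy surgery patient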
How it was run: (§1)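 Cells seeded at 2 × 10^3/well (GBM1 3 × 10^3/well) and left overnight at 37 °C, then exposed continuously for 96 h to a range of compound concentrations (final DMSO 0.2%). Viability read by MTT, absorbance at 540 nm; IC50 taken from dose-response curves as concentration reducing cell growth by 50%.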

MCF10A non-cancer cells = test system: MCF10A non-cancer cells
How it was run: as §1

H460 = test system: H460
How it was run: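 Cells were seeded overnight at 37 °C (2 × 10^3/well; GBM1 at 3 × 10^3/well on poly-L-ornithine/laminin in Neurobasal with hFGF/rhEGF), then exposed to compound concentration ranges for 96 h. Viability was read by MTT (4 h, formazan in DMSO, A540) and IC50 taken from dose–response curves.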

DLD-1 = test system: DLD-1
How it was run: as §1

HCT116 p53+/+ = test system: HCT116 p53+/+
How it was run: as §1

ARPE-19 non-cancer cells = test system: ARPE-19 non-cancer cells
How it was run: as §1

A549 = test system: A549
How it was run: as §1

SMILES: [Cu+2].[Cu+2].[Cu+2].c1ccc(-c2csc(NCCN(CCNc3nc(-c4ccccn4)cs3)CCNc3nc(-c4ccccn4)cs3)n2)nc1.c1ccc(-c2csc(NCCN(CCNc3nc(-c4ccccn4)cs3)CCNc3nc(-c4ccccn4)cs3)n2)nc1 [[L2Cu3]6+]
- IC50 (BxPC3; BXPC3, mean of replicates, read-out: Mean IC50): 293 nM
- IC50 (BxPC3; BXPC3, read-out: Mean IC50 values): 293 nM
- IC50 (BxPC3; BxPC3, 96 h, MTT, individual run, read-out: IC50 values for each replicate): 226 nM and 267 nM and 443 nM and 237 nM
- IC50 (BxPC3; BxPC3, 96 h, MTT, mean of at least 3 independent experiments, read-out: Mean IC50): 293 nM
- Selectivity index (ARPE19) (BxPC3; IC50 ARPE-19 / IC50 BXPC3): 179.62
- Selectivity index (MCF10A) (BxPC3; IC50 MCF10A / IC50 BXPC3): 164.71
- Selectivity Index using the NPI non-cancer cell line (BxPC3; IC50 NP1 / IC50 BXPC3): 147.06
- SI (ARPE19) (BxPC3; mean IC50 ARPE-19 / mean IC50 BxPC3): 179.62
- SI (MCF10A) (BxPC3; mean IC50 MCF10A / mean IC50 BxPC3): 164.71
- SI (NPI) (BxPC3; mean IC50 NP1 / mean IC50 BxPC3): 147.06
- Relative potency (+ anion to no anion), Ratio + anion:no anion (BxPC3; ratio of IC50, BXPC3): 1
- Selectivity indices relative to ARPE-19, Ratio + anion:no anion (BxPC3; ratio of SI (ARPE-19), BXPC3): 1
- Selectivity indices relative to MCF10A, Ratio + anion:no anion (BxPC3; ratio of SI (MCF 10A), BXPC3): 1
- IC50 (MCF10A non-cancer cells; MCF10A non-cancer, read-out: Mean IC50 values): 48300 nM
- IC50 (MCF10A non-cancer cells; MCF10A, 96 h, MTT, individual run, read-out: IC50 values for each replicate): 51900 nM and 58100 nM and 39000 nM and 43800 nM and 48500 nM
- IC50 (MCF10A non-cancer cells; MCF10A, 96 h, MTT, mean of at least 3 independent experiments, read-out: Mean IC50): 48300 nM
- IC50 (MCF10A non-cancer cells; MCF10A, mean of replicates, read-out: Mean IC50): 48300 nM
- Relative potency (+ anion to no anion), Ratio + anion:no anion (MCF10A non-cancer cells; ratio of IC50, MCF10A): 1
- IC50 (H460; H460, 96 h, MTT, individual run, read-out: IC50 values for each replicate): 257 nM and 234 nM and 451 nM and 164 nM
- IC50 (H460; H460, 96 h, MTT, mean of at least 3 independent experiments, read-out: Mean IC50): 276 nM
- IC50 (H460; H460, mean of replicates, read-out: Mean IC50): 276 nM
- IC50 (H460; H460, read-out: Mean IC50 values): 276 nM
- Selectivity index (ARPE19) (H460; IC50 ARPE-19 / IC50 H460): 190.69
- Selectivity index (MCF10A) (H460; IC50 MCF10A / IC50 H460): 174.86
- Selectivity Index using the NPI non-cancer cell line (H460; IC50 NP1 / IC50 H460): 156.12
- SI (ARPE19) (H460; mean IC50 ARPE-19 / mean IC50 H460): 190.69
- SI (MCF10A) (H460; mean IC50 MCF10A / mean IC50 H460): 174.86
- SI (NPI) (H460; mean IC50 NP1 / mean IC50 H460): 156.12
- Relative potency (+ anion to no anion), Ratio + anion:no anion (H460; ratio of IC50, H460): 1
- Selectivity indices relative to ARPE-19, Ratio + anion:no anion (H460; ratio of SI (ARPE-19), H460): 1
- Selectivity indices relative to MCF10A, Ratio + anion:no anion (H460; ratio of SI (MCF 10A), H460): 1
- IC50 (DLD-1; DLD-1, 96 h, MTT, mean of at least 3 independent experiments, read-out: Mean IC50): 132 nM
- IC50 (DLD-1; DLD-1, mean of replicates, read-out: Mean IC50): 132 nM
- IC50 (DLD-1; DLD-1, read-out: Mean IC50 values): 132 nM
- Selectivity index (ARPE19) (DLD-1; IC50 ARPE-19 / IC50 DLD-1): 398.71
- Selectivity index (MCF10A) (DLD-1; IC50 MCF10A / IC50 DLD-1): 365.61
- Selectivity Index using the NPI non-cancer cell line (DLD-1; IC50 NP1 / IC50 DLD-1): 326.44
- SI (ARPE19) (DLD-1; mean IC50 ARPE-19 / mean IC50 DLD-1): 398.71
- SI (MCF10A) (DLD-1; mean IC50 MCF10A / mean IC50 DLD-1): 365.61
- SI (NPI) (DLD-1; mean IC50 NP1 / mean IC50 DLD-1): 326.44
- Relative potency (+ anion to no anion), Ratio + anion:no anion (DLD-1; ratio of IC50, DLD-1): 1
- Selectivity indices relative to ARPE-19, Ratio + anion:no anion (DLD-1; ratio of SI (ARPE-19), DLD-1): 1
- Selectivity indices relative to MCF10A, Ratio + anion:no anion (DLD-1; ratio of SI (MCF 10A), DLD-1): 1
- IC50 (HCT116 p53+/+; HCT116 p53+/+, 96 h, MTT, individual run, read-out: IC50 values for each replicate): 240 nM and 533 nM and 528 nM and 499 nM and 677 nM
- IC50 (HCT116 p53+/+; HCT116 p53+/+, 96 h, MTT, mean of at least 3 independent experiments, read-out: Mean IC50): 496 nM
- IC50 (HCT116 p53+/+; HCT116 p53+/+, mean of replicates, read-out: Mean IC50): 496 nM
- IC50 (HCT116 p53+/+; HCT116 p53+/+, read-out: Mean IC50 values): 496 nM
- Selectivity index (ARPE19) (HCT116 p53+/+; IC50 ARPE-19 / IC50 HCT116 p53+/+): 106.11 and 106.2
- Selectivity index (MCF10A) (HCT116 p53+/+; IC50 MCF10A / IC50 HCT116 p53+/+): 97.30
- Selectivity Index using the NPI non-cancer cell line (HCT116 p53+/+; IC50 NP1 / IC50 HCT116 p53+/+): 86.88
- SI (ARPE19) (HCT116 p53+/+; mean IC50 ARPE-19 / mean IC50 HCT116 p53+/+): 106.11
- SI (MCF10A) (HCT116 p53+/+; mean IC50 MCF10A / mean IC50 HCT116 p53+/+): 97.30
- SI (NPI) (HCT116 p53+/+; mean IC50 NP1 / mean IC50 HCT116 p53+/+): 86.88
- Relative potency (+ anion to no anion), Ratio + anion:no anion (HCT116 p53+/+; ratio of IC50, HCT116 p53+/+): 1
- Selectivity indices relative to ARPE-19, Ratio + anion:no anion (HCT116 p53+/+; ratio of SI (ARPE-19), HCT116 p53+/+): 1
- Selectivity indices relative to MCF10A, Ratio + anion:no anion (HCT116 p53+/+; ratio of SI (MCF 10A), HCT116 p53+/+): 1
- IC50 (ARPE-19 non-cancer cells; ARPE-19, 96 h, MTT, individual run, read-out: IC50 values for each replicate): 49100 nM and 43800 nM and 57700 nM and 66200 nM and 46400 nM
- IC50 (ARPE-19 non-cancer cells; ARPE-19, 96 h, MTT, mean of at least 3 independent experiments, read-out: Mean IC50): 52600 nM
- IC50 (ARPE-19 non-cancer cells; ARPE-19, mean of replicates, read-out: Mean IC50): 52600 nM
- IC50 (ARPE-19 non-cancer cells; ARPE-19 non-cancer, read-out: Mean IC50 values): 52600 nM
- Relative potency (+ anion to no anion), Ratio + anion:no anion (ARPE-19 non-cancer cells; ratio of IC50, ARPE-19): 1
- IC50 (A549; A549, 96 h, MTT, individual run, read-out: IC50 values for each replicate): 256 nM and 189 nM and 254 nM
- IC50 (A549; A549, 96 h, MTT, mean of at least 3 independent experiments, read-out: Mean IC50): 233 nM
- IC50 (A549; A549, mean of replicates, read-out: Mean IC50): 233 nM
- IC50 (A549; A549, read-out: Mean IC50 values): 233 nM
- Selectivity index (ARPE19) (A549; IC50 ARPE-19 / IC50 A549): 225.88
- Selectivity index (MCF10A) (A549; IC50 MCF10A / IC50 A549): 207.12
- Selectivity Index using the NPI non-cancer cell line (A549; IC50 NP1 / IC50 A549): 184.94
- SI (ARPE19) (A549; mean IC50 ARPE-19 / mean IC50 A549): 225.88
- SI (MCF10A) (A549; mean IC50 MCF10A / mean IC50 A549): 207.12
- SI (NPI) (A549; mean IC50 NP1 / mean IC50 A549): 184.94
- Relative potency (+ anion to no anion), Ratio + anion:no anion (A549; ratio of IC50, A549): 1
- Selectivity indices relative to ARPE-19, Ratio + anion:no anion (A549; ratio of SI (ARPE-19), A549): 1
- Selectivity indices relative to MCF10A, Ratio + anion:no anion (A549; ratio of SI (MCF 10A), A549): 1
